Experimental data published in US20050004007A1, “Promotion of adoptosis in cancer cells by co-administration of cyclin dependent kinase inhibitiors and cellular differentiation agents” (priority 2000, published 2005).

How the values were obtained:
[1] = test system: HL-60 human promyelocytic leukemia cells; test: morphological assessment of apoptosis; type: cell-based; conditions: 3, 5, or 10 μM ATRA, 80 nM FP
Text: (§1) Cell culture. The myelomonocytic leukemia cell line U937 was derived from a patient with histiocytic lymphoma and was obtained from American Type Culture Collection. The HL-60 cell line was derived from a patient with acute promyelocytic leukemia as previously described [Grant et al. 1992]. U937 and HL-60 cells were maintained in logarithmic growth phase by culturing in suspension in phenol red-free RPMI-1640 (Life Technologies, Inc., Grand Island, N.Y.) and 10% (v/v) fetal calf serum (Hyclone, Logan, Utah), in a humidified atmosphere (95% air/5% CO2) at 37° C. To obtain antisense-expressing cell lines, U937 cells were transfected by electroporation with a pREP4 vector (Invitrogen; Carlsbad, Calif.) or the pREP4 vector containing the p21^WAF1/CIP1 coding region in an antisense orientation as previously described [Wang et al. 1999]. […]
(§2) Morphological assessment of apoptosis. U937 cells were evaluated for apoptosis by morphological assessment of Wright and Giemsa-stained cytospin preparations. At designated times, cells were transferred to slides by cytocentrifugation, fixed, stained, and evaluated under light microscopy for treatment-induced apoptosis. […] Five or more randomly selected fields, encompassing a total≧500 cells/slide, were evaluated to determine the percentage of apoptotic cells for each treatment condition.

[2] = test system: ERK1/2; test: Western analysis of phosphorylated p44/p42 MAPK in U937 cells; type: cell-based, human; conditions: 10 nM PMA, 100 nM FP, 30 min-6 h
Protocol: (§3) Western analysis. Equal quantities of protein (15 μg/condition for MAPK, 40 μg/condition for cytochrome c, or 25 μg/condition) were separated by SDS-PAGE [underphosporylated pRB (7.5%), poly(ADP-ribose)polymerase or PARP (8.0%), p44/p42 MAPK (10%), p21, p27, procaspase 3 (12%), and cytochrome c (15%)] and electroblotted onto nitrocellulose. Western analysis of p44/p42 MAPK protein was performed according to the manufacturer's instructions (New England Biolabs); otherwise, studies were performed as previously described [Wang et al, 1998]. Briefly, U937 cells (5×10^6) were pelleted by centrifugation, resuspended in 50 μl PBS, lysed by the addition of 2× Laemmli buffer and boiled for 5 min. Proteins were quantified with Coomassie protein assay reagent. Blots were blocked in PBS-T/5% milk, washed twice with PBS-T, and incubated overnight at 4° C. with the appropriate primary antibody. The blots were washed with PBS-T and incubated with a horseradish-peroxidase conjugated secondary antibody diluted appropriately in PBS-T/5% mill. Following incubation, blots were developed by enhanced chemiluminescence exposure to Kodak X-OMAT film (Eastman Kodak Co., Rochester, N.Y.) and reprobed with antibodies directed against actin to control for equal loading of protein.

[3] = test system: p21WAF1/CIP1; test: Western analysis of p21WAF1/CIP1 expression in U937 cells; type: cell-based, human
Protocol: as §3
(§4) Alternatively, whole cell-pellets were washed twice in PBS, resuspended in PBS, and lysed by the addition of I volume of loading buffer. Lysates were boiled for 10 min, centrifuged at 12,800 g for 5 min and quantified using Coomassie protein assay reagent (Pierce, Rockfold, Ill.). 25 μg of total proteins per point were separated by SDS-PAGE and electro-blotted to nitrocellulose. The blots were blocked in 5% non-fat milk in PBS-T and probed for 1 h with the appropriate dilution of primary antibody. Blots were washed 3×10 min in PBS-T and then incubated with a 1:2000 dilution of peroxidase-conjugated secondary antibody for 1 h at room temperature. Blots were again washed 3×10 min in PBS-T and then developed by enhanced chemiluminesence. Where indicated, blots were stripped and re-probed with antibodies directed against actin.
(§5) Primary antibodies for both p21^WAF1/CIP1 and p27^KIP1 (Transduction Laboratories, Lexington, Ky.) were used in a 1:1000 dilution; PARP (1:1000; Oncogene Research Products, Cambridge, Mass.); pro-caspase 3 (1:1000; Transduction Laboratories); cytochrome c (1:2000; Pharmingen); bcl-2 (1:2000; DAKO, Denmark); bax (1:1000; Santa Cruz Biotechnology, Inc., Santa Cruz, Calif.); bid (1:1000; Cell Signaling, Beverly, Mass.); XIAP (1:1000; Cell Signaling); Mcl-1 (1:1000; Pharmingen); bak (1:1000; Calbiochem); c-Myc (1:1000; Pharmingen, San Diego, Calif.); actin (1:2000; Sigma Chemicals, St. Louis, Mo.); cyclins-D1, -A and -E (1:1000; Pharmingen); pRb, underP-pRb, pRb-CDK2 and pRb-CDK4 (all 1:1000; Pharmingen); Ac-H3 and Ac-H4 (both 1:1000; Upstate Biotechnology, Lake Placid, N.Y.); E2F-1 (Upstate Biotechnology). Secondary antibodies conjugated to horseradish peroxidase were obtained from Kirkegaard and Perry Laboratories, Inc. (Gaithersburg, Md.). Coomassie protein assay reagent was purchased from Pierce (Rockford, Ill.), and an enhanced chemiluminescence kit was obtained from New England Nuclear (Boston, Mass.). The pan-caspase inhibitor BOC-D-fmk and the caspase 8 inhibitor Z-IETD-fmk were purchased from Enzyme System Products (Livermore, Calif.) All other chemicals or reagents were purchased from Sigma.

[4] = test system: U937 cells; test: clonogenic survival assay; type: cell-based, human; conditions: 24-h exposure; 10 nM PMA alone or 10 nM PMA/100 nM FP
Protocol: Clonogenic survival assays. Clonogenic survival assays assessed the effects of 10 nM PMA, FP (50 or 100 nM) or PMA/FP co-treatments on leukemic cell self-renewal capacity. Cell densities were determined after 24-h drug treatment using a Coulter Counter (Coulter Electronics, Hialeah, Fla.). Cells were pelleted by centrifugation and resuspended in fresh media to achieve a final cell density of 3×10^5/ml. A total of 4500 cells were plated in soft agar cloning medium for each condition as previously described [Powell et al. 1995]. Colonies, defined as groups of≧50 cells, were scored after 12 days of incubation. Clonogenic survival in drug-treated samples was expressed as a percentage relative to untreated controls.

[5] = test system: p27KIP1; test: Western analysis of p27KIP1 expression in U937 cells; type: cell-based, human; conditions: 10 nM PMA, FP 50-100 nM, 24 h
Protocol: as §3, with “Following incubation, blots were developed by enhanced chemiluminescence exposure to Kodak X-OMAT film (Eastman Kodak Co., Rochester, N.Y.) and reprobed with antibodies directed against actin to control for equal loading of protein.” left out
Alternatively, whole cell-pellets were washed twice in PBS, resuspended in PBS, and lysed by the addition of I volume of loading buffer. Lysates were boiled for 10 min, centrifuged at 12,800 g for 5 min and quantified using Coomassie protein assay reagent (Pierce, Rockfold, Ill.). […]

[6] = test system: U937 cells; test: plastic adherence (differentiation); type: cell-based, human; conditions: 10 nM PMA alone or with FP 100 nM
Protocol: (§6) Differentiation studies. Expression of the monocytic differentiation marker, CD11b, was monitored by direct immunofluorescence staining and flow cytometric analysis as previously described [Freemerman et al. 1997]. Following drug treatment, suspension and adherent cells were enumerated by a Coulter Counter and 2×10^6 cells were pelleted by centrifugation. The supernatant was aspirated and the cells were resuspended in 300 μl of ice-cold PBS. Two 100 μl aliquots from each sample were then combined with either phycoerythrin-1 (10 μl) or the IgG control. Samples were incubated for 20 min at 4° C. and diluted in PBS (1 ml). Sample data were collected using a Becton Dickinson FACScan flow cytometer and analyzed with Verity Winlist Software (Verity; Topsham, Me.). […] U937 cells were transfected with a full-length p21^WAF1/CIP1 promoter (base pairs 1-2326) as described by Chinery et al. [Chinery et al. 1997] utilizing electroporation (Eppendorf Multiporator, 620V, 60 μs) in hypoosmolar buffer. […] Lysates (20 μL) were mixed with luciferase assay reagent (100 μL) and monitored for 20 seconds in a luminometer (Monolight 2010). […] The reaction was terminated by addition of NaCO3 and absorbance was measured at 405 nm in a Vmax plate reader (Molecular Devices). Activity was determined by comparison to a standard curve. […]

[7] = test system: p21WAF1/CIP1 full-length promoter; test: p21WAF1/CIP1 luciferase reporter assay; type: cell-based, human; conditions: 10 nM PMA, 100 nM FP, 3 and 6 h
Protocol: as §6

[8] = test system: pRb; test: Western analysis of underphosphorylated pRb in U937 cells; type: cell-based, human
Protocol: as §3, §4, §5

[9] = test system: U937 cells; test: CD11b surface differentiation marker expression (flow cytometry); type: cell-based, human; conditions: 24 h; 10 nM PMA alone or with 50 nM FP
Protocol: Differentiation studies. Expression of the monocytic differentiation marker, CD11b, was monitored by direct immunofluorescence staining and flow cytometric analysis as previously described [Freemerman et al. 1997]. Following drug treatment, suspension and adherent cells were enumerated by a Coulter Counter and 2×10^6 cells were pelleted by centrifugation. The supernatant was aspirated and the cells were resuspended in 300 μl of ice-cold PBS. Two 100 μl aliquots from each sample were then combined with either phycoerythrin-1 (10 μl) or the IgG control. Samples were incubated for 20 min at 4° C. and diluted in PBS (1 ml). Sample data were collected using a Becton Dickinson FACScan flow cytometer and analyzed with Verity Winlist Software (Verity; Topsham, Me.). […] U937 cells were transfected with a full-length p21^WAF1/CIP1 promoter (base pairs 1-2326) as described by Chinery et al. [Chinery et al. 1997] utilizing electroporation (Eppendorf Multiporator, 620V, 60 μs) in hypoosmolar buffer. In each experiment, pSV-βgal (Promega), containing the β-galactosidase gene under the control of the constitutively active SV40 promoter and enhancer, was co-transfected with the luciferase reporter at a ratio of 1:5 (w/w) to normalize for transfection efficiency. The cells were incubated overnight in complete media and treated with 10 nM PMA, 100 nM FP, or 10 nM PMA/100 nM FP for 3 or 6 h. At indicated times, cells were washed in serum-free media, resuspended in 0.25M Tris-HCl pH 7.8, lysed by rapid freeze-thaw, centrifuged and the supernatant frozen at −70° C. Lysates (20 μL) were mixed with luciferase assay reagent (100 μL) and monitored for 20 seconds in a luminometer (Monolight 2010). For β-galactosidase activity, lysates (50 μL) were mixed in triplicate with an equal volume of […] assay buffer (2×) in a 96-well plate and incubated overnight. The reaction was terminated by addition of NaCO3 and absorbance was measured at 405 nm in a Vmax plate reader (Molecular Devices). Activity was determined by comparison to a standard curve. […]

[10] = test system: HL-60 promyelocytic leukemia cells; test: percent cell death; type: cell-based, human; conditions: SAHA 1 and 1.5 μM alone or with 100 or 150 nM FP
[11] = test system: U937 myelomonocytic human leukemia cells; test: percent cell death; type: cell-based; conditions: 1 μM SAHA, 100 nM FP, 24 hours after administration
[12] = test system: U937 cells; test: cell cycle analysis (propidium iodide, flow cytometry); type: cell-based, human; conditions: 24 h after administration of SAHA, FP or both
Protocol: Cell Cycle Analysis. Following drug treatment, cells were pelleted by centrifugation at 500 g×6 min, and resuspended in 70% ethanol. The cells were incubated on ice for at least 1 h and resuspended in 1 ml cell cycle buffer (0.38 mM Na-Citrate, 0.5 mg/ml RNase A, and 0.01 mg/ml propidium iodide) at a concentration of 10×10^5 cells/ml, stored in the dark at 4 C until analysis (24 h), using a Becton-Dickinson FACScan flow cytometer and Verity Winlist software (Verity Software, Topsham, Me.).

[13] = test system: U937/Bcl-2 cells; test: morphological assessment of apoptosis in Bcl-2 overexpressing cells; type: cell-based, human; conditions: ara-C 1.0 μM x 6 h
Text: as §1, §2

CC1=C(/C=C/C(C)=C/C=C/C(C)=C/C(=O)O)C(C)(C)CCC1 [ATRA, all trans retinoic acid]
% apoptosis [1]: minimal effect

CCCCCCCCCCCCCC(=O)O[C@@H]1[C@@H](C)[C@@]2(O)[C@@H](C=C(CO)C[C@]3(O)C(=O)C(C)=C[C@@H]23)[C@@H]2C(C)(C)[C@]12OC(C)=O [PMA, phorbol 12-myristate 13-acetate]
phosphorylation (activation) of ERK1/2 [2]: increase in phosphorylated ERK1/2 | p21WAF1/CIP1 expression ([3]; 10 nM PMA, FP 50-100 nM, 24 h): significant increase | time to induction of p21WAF1/CIP1 after drug addition ([3]; PMA 10 nM): ≤ 1 h | clonogenic survival, percentage relative to untreated controls [4]: 15% | p27KIP1 expression [5]: slight increase | percentage of cells with plastic adherence [6]: 80% | p21WAF1/CIP1 reporter activity [7]: markedly increased | time of pRb dephosphorylation ([8]; 10 nM PMA alone): 3 h | full-length underphosphorylated pRb ([8]; 10 nM PMA, FP 50, 80 or 100 nM, 24 h): significant increase | percentage of cells displaying CD11b expression [9]: 26%

O=C(CCCCCCC(=O)Nc1ccccc1)NO [SAHA, suberoylanilide hydroxamic acid]
cell death [10]: modest levels of cell death | cell death [11]: ineffective | cell cycle distribution [12]: prominent increase in the percentage of cells arresting in G0/G1

Nc1ccn([C@@H]2O[C@H](CO)[C@@H](O)[C@@H]2O)c(=O)n1 [ara-C, 1-β-D-arabinofuranosylcytosine]
lethal effects in Bcl-2 overexpressing cells [13]: significantly protected
